Test results: patent US8859535B2, “Hydroxy substituted isoquinolinone derivatives” (Novartis AG, priority 2011, dated 2014)

Experiments:
Assay type in all cases: binding
[1] = molecular target: T1, human MDM2 protein (amino acids 2-188) (Homo sapiens, UniProt Q00987); assay: p53-MDM2 TR-FRET assay, modified (p53-MDM2 Assay 2); settings: 0.1 nM MDM2, 0.1 nM Europium labeled streptavidin; read-out: IC50 (nM) of p53-Hdm2 inhibition (TR-FRET) Assay 2
T1 construct: human MDM2 protein (amino acids 2-188); made in house
Description: Time Resolved Fluorescence Energy Transfer (TR-FRET) Assay
The inhibition of p53-MDM2 and p53-MDM4 interactions is measured by time resolved fluorescence energy transfer (TR-FRET). Fluorescence energy transfer (or Foerster resonance energy transfer) describes an energy transfer between donor and acceptor fluorescent molecules. For this assay, human MDM2 protein (amino acids 2-188) and human MDM4 protein (amino acids 2-185), tagged with a C-terminal biotin moiety, are used in combination with a Europium labeled streptavidin (Perkin Elmer, Inc., Waltham, Mass., USA) serving as the donor fluorophore. The p53 derived, Cy5 labeled peptide Cy5-TFSDLWKLL (p53 aa18-26) is the energy acceptor. Upon excitation of the donor molecule at 340 nm, binding interaction between MDM2 or MDM4 and the p53 peptide induces energy transfer and enhanced response at the acceptor emission wavelength at 665 nm. Disruption of the formation of the p53-MDM2 or p53-MDM4 complex due to an inhibitor molecule binding to the p53 binding site of MDM2 or MDM4 results in increased donor emission at 620 nm. The ratiometric FRET assay readout is calculated from the raw data of the two distinct fluorescence signals measured in time resolved mode (fluorescence 665 nm/fluorescence 620 nm×1000).
After addition of 1.25 nM MDM2-biotinylated or 2.5 nM MDM4-biotinylated (internal preparations), and 0.625 nM Europium labeled streptavidin (Perkin Elmer), the solution is pre-incubated for 15 minutes at room temperature, then 10 nM Cy5-p53 peptide (internal preparation) is added before an incubation at room temperature for 15 minutes prior to reading the plate. For measurement of samples, a Victor II microplate reader (Perkin Elmer) is used with the following settings: Excitation 340 nm, Emission Donor 620 nm and Emission Acceptor 665 nm. IC50 values are calculated by curve fitting using XLfit. If not specified, reagents are purchased from Sigma-Aldrich Chemie GmBH, Buchs, Switzerland.
This assay was used to evaluate compounds displaying inhibition of p53-MDM2 interaction and p53-MDM4 interaction at IC50s of 0.005 to 50 μM (p53-MDM2 Assay 1 and p53-MDM4 Assay 1, respectively). For selected compounds displaying IC50s between […] on MDM2, a slightly modified assay is used with the following adaptations: 0.1 nM MDM2, 0.1 nM Europium labeled streptavidin and Tecan genios Pro is used as a microplate reader for the fluorescence measurements (p53-MDM2 Assay 2).

[2] = molecular target: T1, human MDM2 protein (amino acids 2-188); assay: p53-MDM2 TR-FRET assay (p53-MDM2 Assay 1); settings: 1.25 nM MDM2-biotinylated, 10 nM Cy5-p53 peptide; read-out: IC50 (μM) of p53-Hdm2 inhibition (TR-FRET) Assay 1
In short: (§1)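 Peptide displacement read as 665/620 nm TR-FRET ratio (excitation 340 nm) after 15 min room temperature with 10 nM Cy5-p53 aa18-26, following 15 min preincubation of Eu-streptavidin (0.625 nM) with biotinylated MDM4 aa 2-185 (2.5 nM) or MDM2 aa 2-188 (1.25 nM); IC50 curve-fitted. MDM2 Assay 2: MDM2 and Eu-streptavidin each 0.1 nM.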

[3] = molecular target: T2, human MDM4 protein (amino acids 2-185) (Homo sapiens, UniProt O15151); assay: p53-MDM4 TR-FRET assay (p53-MDM4 Assay 1); settings: 2.5 nM MDM4-biotinylated, 10 nM Cy5-p53 peptide; read-out: IC50 (μM) of p53-Hdm4 inhibition (TR-FRET) Assay 1
T2 construct: human MDM4 protein (amino acids 2-185); made in house
T2 sequence (O15151 2-185): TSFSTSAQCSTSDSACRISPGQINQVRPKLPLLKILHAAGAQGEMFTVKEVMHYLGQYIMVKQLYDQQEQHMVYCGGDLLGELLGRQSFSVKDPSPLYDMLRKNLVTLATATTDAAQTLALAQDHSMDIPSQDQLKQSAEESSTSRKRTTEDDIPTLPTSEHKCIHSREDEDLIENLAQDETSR
In short: as §1

T1 sequence (Q00987 2-188): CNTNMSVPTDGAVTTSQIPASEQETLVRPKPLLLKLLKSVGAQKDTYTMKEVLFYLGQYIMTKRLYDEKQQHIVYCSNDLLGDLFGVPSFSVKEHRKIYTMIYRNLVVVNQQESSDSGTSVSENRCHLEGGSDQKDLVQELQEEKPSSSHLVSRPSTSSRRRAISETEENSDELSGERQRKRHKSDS

COc1cc2c(cc1OC(C)C)[C@H](c1ccc(Cl)cc1)N(c1ccc([C@@](C)(O)C3CC4CCCC(C3)S4(=O)=O)cc1)C(=O)C2 (stereo partly drawn) [Example 177, (S)-1-(4-Chloro-phenyl)-2-{4-[(S)-1-(9,9-dioxo-9-thia-bicyclo[3.3.1]non-3-yl)-1-hydroxy-ethyl]-phenyl}-7-isopropoxy-6-methoxy-1,4-dihydro-2H-isoquinolin-3-one]
IC50 [1]: 1.15 nM

COc1cc2c(cc1OC(C)C)[C@H](c1ccc(Cl)cc1)N(c1ccc([C@](C)(O)C3CCN(CCO)CC3)cc1)C(=O)C2 (single isomer, unassigned) [Example 132]
IC50 [1]: 25.3 nM

COc1cc2c(cc1OC(C)C)[C@H](c1ccc(Cl)cc1)N(c1ccc(C(C)(O)[C@H]3CCCN(C4COC4)C3)cc1)C(=O)C2 (stereo partly drawn) [Example 183, (S)-1-(4-Chloro-phenyl)-2-{4-[1-hydroxy-1-((S)-1-oxetan-3-yl-piperidin-3-yl)-ethyl]-phenyl}-7-isopropoxy-6-methoxy-1,4-dihydro-2H-isoquinolin-3-one]
IC50 [1]: 8.78 nM

COc1cc2c(cc1OC(C)C)[C@H](c1ccc(Cl)cc1)N(c1ccc(C(C)(O)C3CC4CCCC(C3)N4C(=O)COC(C)=O)cc1)C(=O)C2 (stereo partly drawn) [Example 121, Acetic acid 2-[3-(1-{4-[(S)-1-(4-chloro-phenyl)-7-isopropoxy-6-methoxy-3-oxo-3,4-dihydro-1H-isoquinolin-2-yl]-phenyl}-1-hydroxy-ethyl)-9-aza-bicyclo[3.3.1]non-9-yl]-2-oxo-ethyl ester]
IC50 [1]: 3.44 nM

COc1cc2c(cc1OC(C)C)[C@H](c1ccc(Cl)cc1)N(c1ccc([C@](C)(O)C3CCN(C(=O)CO)CC3)cc1)C(=O)C2 (single isomer, unassigned) [Example 134]
IC50 [1]: 141 nM

COc1cc2c(cc1OC(C)C)[C@H](c1ccc(Cl)cc1)N(c1ccc([C@@](C)(O)C3CCN(C4COC4)CC3)cc1)C(=O)C2 (single isomer, unassigned) [Example 127]
IC50 [1]: 0.935 nM

COc1cc2c(cc1OC(C)C)[C@H](c1ccc(Cl)cc1)N(c1ccc(C(C)(O)C3C4COCC3CN(C=O)C4)cc1)C(=O)C2 (stereo partly drawn) [Example 157, 9-(1-{4-[(S)-1-(4-Chloro-phenyl)-7-isopropoxy-6-methoxy-3-oxo-3,4-dihydro-1H-isoquinolin-2-yl]-phenyl}-1-hydroxy-ethyl)-3-oxa-7-aza-bicyclo[3.3.1]nonane-7-carbaldehyde]
IC50 [1]: 4.89 nM

COc1cc2c(cc1OC(C)C)[C@H](c1ccc(Cl)cc1)N(c1ccc(C(C)(O)C3C4CNCC3COC4)cc1)C(=O)C2 (stereo partly drawn) [Example 156, (S)-1-(4-Chloro-phenyl)-2-{4-[1-hydroxy-1-(3-oxa-7-aza-bicyclo[3.3.1]non-9-yl)-ethyl]-phenyl}-7-isopropoxy-6-methoxy-1,4-dihydro-2H-isoquinolin-3-one]
IC50 [1]: 12.6 nM

COc1cc2c(cc1OC(C)C)[C@H](c1ccc(Cl)cc1)N(c1ccc(C(C)(O)[C@H]3CCCN(C=O)C3)cc1)C(=O)C2 (stereo partly drawn) [Example 182, (S)-3-(1-{4-[(S)-1-(4-Chloro-phenyl)-7-isopropoxy-6-methoxy-3-oxo-3,4-dihydro-1H-isoquinolin-2-yl]-phenyl}-1-hydroxy-ethyl)-piperidine-1-carbaldehyde]
IC50 [1]: 0.329 nM

COc1cc2c(cc1OC(C)C)[C@H](c1ccc(Cl)cc1)N(c1ccc([C@@](C)(O)C3CCN(C=O)CC3)cc1)C(=O)C2 (single isomer, unassigned) [Example 125]
IC50 [1]: 0.746 nM

COc1cc2c(cc1OC(C)C)[C@H](c1ccc(Cl)cc1)N(c1ccc([C@@](C)(O)C3CCN(CCO)CC3)cc1)C(=O)C2 (single isomer, unassigned) [Example 131]
IC50 [1]: 1.42 nM

COc1cc2c(cc1OC(C)C)[C@H](c1ccc(Cl)cc1)N(c1ccc([C@](C)(O)C3CCN(C=O)CC3)cc1)C(=O)C2 (single isomer, unassigned) [Example 124]
IC50 [1]: 150 nM

COc1cc2c(cc1OC(C)C)[C@H](c1ccc(Cl)cc1)N(c1ccc([C@@](C)(O)C3CC4CCC(C3)O4)cc1)C(=O)C2 (single isomer, unassigned) [Example 159]
IC50 [1]: 0.894 nM

COc1cc2c(cc1OC(C)C)[C@H](c1ccc(Cl)cc1)N(c1ccc(C(C)(O)[C@H]3CCCN(C(=O)OC(C)(C)C)C3)cc1)C(=O)C2 (stereo partly drawn) [Example 179, (S)-3-(1-{4-[(S)-1-(4-Chloro-phenyl)-7-isopropoxy-6-methoxy-3-oxo-3,4-dihydro-1H-isoquinolin-2-yl]-phenyl}-1-hydroxy-ethyl)-piperidine-1-carboxylic acid tert-butyl ester]
IC50 [1]: 1.28 nM

COc1cc2c(cc1OC(C)C)[C@H](c1ccc(Cl)cc1)N(c1ccc(C(C)(O)[C@H]3CCCN(C)C3)cc1)C(=O)C2 (stereo partly drawn) [Example 181, (S)-1-(4-Chloro-phenyl)-2-{4-[1-hydroxy-1-((S)-1-methyl-piperidin-3-yl)-ethyl]-phenyl}-7-isopropoxy-6-methoxy-1,4-dihydro-2H-isoquinolin-3-one]
IC50 [1]: 5.13 nM

COc1cc2c(cc1OC(C)C)[C@H](c1ccc(Cl)cc1)N(c1ccc([C@@](C)(O)C34CCC(CC3)O4)cc1)C(=O)C2 (single isomer, unassigned) [Example 136]
IC50 [2]: 0.0025 µM | IC50 [3]: 2.96 µM

CC(C)Oc1cc2c(cc1OCc1ccccn1)CC(=O)N(c1ccc(C(C)(O)C3CCOCC3)cc1)[C@H]2c1ccc(Cl)cc1 (stereo partly drawn) [Example 146, (S)-1-(4-Chloro-phenyl)-2-{4-[1-hydroxy-1-(tetrahydro-pyran-4-yl)-ethyl]-phenyl}-7-isopropoxy-6-(pyridin-2-ylmethoxy)-1,4-dihydro-2H-isoquinolin-3-one]
IC50 [2]: 0.005 µM | IC50 [3]: 1.19 µM

COc1cc2c(cc1OC(C)C)[C@H](c1ccc(Cl)cc1)N(c1ccc(C(O)C3CCOCC3)cc1)C(=O)C2 (stereo partly drawn) [Example 40, (S)-1-(4-Chloro-phenyl)-2-{4-[hydroxy-(tetrahydro-pyran-4-yl)-methyl]-phenyl}-7-isopropoxy-6-methoxy-1,4-dihydro-2H-isoquinolin-3-one]
IC50 [2]: 0.0328 µM | IC50 [3]: 31.6 µM

COc1cc2c(cc1OC(C)C)[C@H](c1ccc(Cl)cc1)N(c1ccc(C(C)(O)C3CN(C4CCOCC4)C3)cc1)C(=O)C2 (stereo partly drawn) [Example 98, (S)-1-(4-Chloro-phenyl)-2-(4-{1-hydroxy-1-[1-(tetrahydro-pyran-4-yl)-azetidin-3-yl]-ethyl}-phenyl)-7-isopropoxy-6-methoxy-1,4-dihydro-2H-isoquinolin-3-one]
IC50 [2]: 0.0342 µM | IC50 [3]: 34.7 µM

COc1cc2c(cc1OC(C)C)[C@H](c1ccc(Cl)cc1)N(c1ccc([C@](C)(O)C3CC[S+]([O-])CC3)cc1)C(=O)C2 (stereo partly drawn) [Example 170, (S)-1-(4-Chloro-phenyl)-2-{4-[(R)-1-hydroxy-1-(1-oxo-hexahydro-thiopyran-4-yl)-ethyl]-phenyl}-7-isopropoxy-6-methoxy-1,4-dihydro-2H-isoquinolin-3-one]
IC50 [2]: 0.168 µM | IC50 [3]: 62.5 µM

COc1cc2c(cc1OC(C)C)[C@H](c1ccc(Cl)cc1)N(c1ccc([C@@](C)(O)C3CCOCC3)cc1)C(=O)C2 (single isomer, unassigned) [Example 32]
IC50 [2]: 0.0023 µM | IC50 [3]: 2.19 µM

COc1cccc(C(C)(O)c2ccc(N3C(=O)Cc4cc(OC)c(OC(C)C)cc4[C@@H]3c3ccc(Cl)cc3)cc2)c1 (stereo partly drawn) [Example 1, (S)-1-(4-Chloro-phenyl)-2-{4-[1-hydroxy-1-(3-methoxy-phenyl)-ethyl]-phenyl}-7-isopropoxy-6-methoxy-1,4-dihydro-2H-isoquinolin-3-one]
IC50 [2]: 0.0432 µM | IC50 [3]: 70.8 µM
